Laboratory results taken from patent US20140031283A1, “ANTICANCER FUSION PROTEIN” (ADAMED SP. Z O.O., priority 2011, published 2014).

Key:
[1] = test system: human lung cancer NCI-H460-Luc2; experiment: NCI-H460-Luc2 lung cancer xenograft in Crl:CD1-Foxn1nu 1 mice; type: in vivo; conditions: NCI-H460-Luc2, Crl:CD1-Foxn1nu 1 mice, 10 mg/kg i.v. six times every second day, 30th day
Procedure: (§1) Antitumor activity of protein preparations was tested in a mouse model of human colon cancer HCT116, human colon cancer Colo205, human colon cancer model SW620, human liver cancer model HepG2, and human lung cancer models NCI-H460 and NCI-H460-Luc2.
(§2) The HCT116 (in mice Crl:CD1-Foxn1^nu 1), Colo205, NCI-H460, NCI-H460-Luc2 cells were maintained in RPMI 1640 medium (Hyclone, Logan, Utah, USA) mixed in the ratio of 1:1 with Opti-MEM (Invitrogen, Cat.22600-134) supplemented with 10% fetal calf serum and 2 mM glutamine. On the day of mice grafting, the cells were detached from the support by washing the cells with trypsin (Invitrogen), then the cells were centrifuged at 1300 rpm, 4° C., 8 min., suspended in HBSS buffer (Hanks medium), counted and diluted to the concentration of 25×10^6 cells/ml.
(§3) Examination of antitumor activity of proteins of the invention was conducted on 7-9 week-old CD-nude (Crl:CD1-Foxn1^nu 1) or 4-6 week-old Crl:SHO-Prkdc^scidHr^hr mice obtained from Charles River Germany. Mice were kept under specific pathogen-free conditions with free access to food and demineralised water (ad libitum). All experiments on animals were carried in accordance with the guidelines: “Interdisciplinary Principles and Guidelines for the Use of Animals in Research. […]

[2] = test system: human colon cancer HCT116; experiment: HCT116 colon cancer xenograft in Crl:SHO-Prkdc^scidHr^hr mice; type: in vivo; conditions: 65 mg/kg i.v., 10 daily applications with a two-day break, 24th day
Procedure: as §1
The HCT116 (in mice Crl:SHO-Prkdc^scidHr^hr) were alternatively maintained in McCoy's medium (Hyclone, Logan, Utah, USA) supplemented with 10% fetal calf serum and 2 mM glutamine. On the day of mice grafting, the cells were detached from the support by washing the cells with trypsin (Invitrogen), then the cells were centrifuged at 1300 rpm, 4° C., 8 min., suspended in HBSS buffer (Hanks medium), counted and diluted to the concentration of 25×10^6 cells/ml. SW620 cells were maintained in DMEM (HyClone, Logan, Utah, USA) supplemented with 10% fetal calf serum and 2 mM glutamine. On the day of mice grafting, the cells were detached from the support by washing the cells with trypsin (Invitrogen), then the cells were centrifuged at 1300 rpm, 4° C., 8 min., suspended in HBSS buffer (Hanks medium), counted and diluted to the concentration of 25×10^6 cells/ml.
Examination of antitumor activity of proteins of the invention was conducted on 7-9 week-old CD-nude (Crl:CD1-Foxn1^nu 1) or 4-6 week-old Crl:SHO-Prkdc^scidHr^hr mice obtained from Charles River Germany. […]

[3] = test system: human colon cancer Colo205; experiment: Colo205 colon cancer xenograft in Crl:SHO-Prkdc^scidHr^hr mice; type: in vivo; conditions: 30 mg/kg i.v. six times every second day, 33rd day
Procedure: as §1, §2, §3

NCI-H460 = conditions: continuous incubation over 72 h, test MTT
Procedure: Data analysis consists in determining IC50 concentration of the protein (in ng/ml), at which the 50% reduction in the number of cells occurs in the population treated compared to control cells. Results were analyzed using GraphPad Prism 5.0 software. […] Cell culture medium was diluted to a defined density (10^4-10^5 cells per 100 μl). Then 100 μl of appropriately diluted cell suspension was applied to a 96-well plate in triplicates. Thus prepared cells were incubated for 24 h at 37° C. in 5% or 10% CO2, depending on the medium used, and then to the cells (in 100 μl of medium) further 100 μl of the medium containing various concentrations of tested proteins were added. […] After incubation of the cells with tested proteins over the period of next 72 hours, which is equivalent to 3-4 times of cell division, the medium with the test protein was added with 20 ml of MTT working solution [5 mg/ml], and incubation was continued for 3 h at 37° C. in 5% CO2. Then the medium with MTT solution was removed, and formazan crystals were dissolved by adding 100 μl of DMSO. After stirring, the absorbance was measured at 570 nm (reference filter 690 nm).
Each experiment represents the average value of at least two independent experiments performed in triplicates.

rhTRAIL114-281: recombinant human soluble TRAIL, amino acids 114-281 of hTRAIL, used as the comparative reference
tumor growth inhibition (TGI) relative to the control [1]: 53.1% | tumor growth inhibition (TGI) relative to the control [2]: 38% | tumor growth inhibition (TGI) relative to the control [3]: 18.8% | NCI-H460 IC50 (NCI-H460): 0.06968 µg/mL
